System: intracellular uridine and cytidine nucleotide levels
Assay: LC-MS/MS analysis of intracellular nucleotides in A549 cells
Format: cell-based
Conditions: 250 μM with 1 μM GSK983, 5 μM uridine, 6 h
Procedure: FIG. 7. LC-MS analysis of intracellular nucleotides. (A) LC-MS analysis of intracellular uridine and cytidine nucleotide levels after 6 h treatments. In all assays, the culture medium was supplemented with 5 μM uridine and 1 μM GSK983. Error bars represent ±S.D. of two replicates. (B) LC-MS detection of mono-, di- and tri-phosphates of CPU and 5-F-CPU in cells. LC-MS/MS was performed on an Agilent 1290 infinity II LC system tandem with 6370 triple quad mass spectrometer using ion pairing chromatography. LC separation was performed at 40° C. with a solvent flow rate of 0.25 mL/min on a Zorbax RRHD Extended-C18 column (2.1×150 mm, 1.8 μM). Buffer A contained 97% H2O, 3% MeOH, 5 mM tributylamine, 5.5 mM Acetic acid and 1 μM medronic acid with pH=5.0; Buffer B contains ca. 100% MeOH, 5 mM tributylamine, 5.5 mM Acetic acid and 5 μM medronic acid with pH=7.0 The initial mobile phase composition was 100% solvent A, and a constant or linear gradient was applied after sample injection with eluent B varying as follows: 0% at 2.5 min, 20% at 7.5 min, 45% at 14 min, 99% at 20 to 23 min, and 0% from 23.1 to 27.1 min. […] Samples were measured in the negative ESI mode with capillary voltage at −3.5 kV. […]
With optimized sampling and detection method in hand, pyrimidine nucleotide levels were measured in cells cultured with either 250 μM CPU, 5-F-CPU or 5′-F-CPU in combination with 1 μM GSK983 (FIG. 7A). […]

In the case of `O=c1ccn([C@@H]2C=C(CO)[C@@H](O)[C@H]2O)c(=O)[nH]1` [CPU, 1-((1R,4R,5S)-4,5-dihydroxy-3-(hydroxymethyl)cyclopent-2-en-1-yl)pyrimidine-2,4(1H,3H)-dione], the “depletion of UTP and CTP concentrations” value is reported as “more strongly than 5-F-CPU”.

— patent US20220280513A1, “ENHANCING THE ANTIVIRAL EFFICACY OF RNA VIRUS INHIBITION BY COMBINATION WITH MODULATORS OF PYRIMIDINE METABOLISM” (The Board of Trustees of the Leland Stanford Junior …, priority 2019, published 2022)
